Patent publication US7335505B2, “Materials and methods relating to protein aggregation in neurodegenerative disease” (Wista Laboratories Ltd., priority 2001, dated 2008)
pIC50, pKi: −log10 of the molar value.

Experiments:
[1] = Extent of reduction of diaminophenothiazines by DTT or ascorbic acid; assay type: physicochemical; details: approx. 500:1 DTT excess, at 120 minutes
[2] = biological target: T1, full-length human tau (T40) / 12 kD PHF-core tau fragment (Homo sapiens, UniProt P10636); details: for inhibition of 12 kD:T40 ratio (in words): IPTG 0-50 μM, thionine and tolonium chloride with 200 μM DTT/ascorbate, chlorpromazine and tacrine without reducing agents
[3] = biological target: T1, full-length human tau (T40) / 12 kD PHF-core tau fragment; assay: cell-based
[4] = in vivo; cited from earlier work

T1 sequence (P10636 1-441 isoform P10636-8): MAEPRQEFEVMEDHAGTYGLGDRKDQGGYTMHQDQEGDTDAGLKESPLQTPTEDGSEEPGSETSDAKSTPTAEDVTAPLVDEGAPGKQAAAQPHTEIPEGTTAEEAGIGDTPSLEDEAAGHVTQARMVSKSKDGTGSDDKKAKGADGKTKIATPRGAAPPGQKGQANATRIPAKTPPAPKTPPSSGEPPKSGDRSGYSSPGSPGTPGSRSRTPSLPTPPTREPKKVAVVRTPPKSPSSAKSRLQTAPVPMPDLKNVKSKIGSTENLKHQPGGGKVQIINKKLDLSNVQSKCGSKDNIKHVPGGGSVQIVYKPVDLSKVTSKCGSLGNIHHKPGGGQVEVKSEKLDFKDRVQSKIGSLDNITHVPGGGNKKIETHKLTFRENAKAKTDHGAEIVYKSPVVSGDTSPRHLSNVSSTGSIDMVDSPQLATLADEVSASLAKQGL

Compound | extent of reduction [1] | inhibition of 12 kD:T40 ratio (in words) [2] | pKi [3] | also measured
thionine | completely reduced | essentially identical inhibition | – | toxicity to cells of the assay [2]: toxic; conversion of induced T40 into the 12 kD fragment ([2]; 2 μM thionine (reduced), increasing IPTG): not converted into the 12 kD fragment
Nc1c2c(nc3ccccc13)CCCC2 [tacrine] | – | non-inhibitory | 6.10 | –
Cc1cc(N(C)C)cc2[s+]c3cc(N(C)C)cc(C)c3nc12 [DMMB, 1,9-Dimethylmethylene Blue] | relatively little reduced | – | – | effect on tau degradation products within the cell ([2]; 1 μM DMMB, with and without IPTG induction): effectively abolished all degradation products; pIC50 ([2]; read-out: cellular B50 value, base-line expression of the 12/14 kD species, concentration reducing 12 kD production to 50%): ~7.00
Cc1cc2nc3ccc(N(C)C)cc3[s+]c2cc1N [tolonium chloride] | – | – | – | half live in blood [4]: approximately 100 minutes
CN(C)CCCN1c2ccccc2Sc2ccc(Cl)cc21 [chlorpromazine] | – | non-inhibitory | 5.67 | –
